Test results from ChEMBL document CHEMBL6109178, “Species-Dependent Metabolism of a Covalent nsP2 Protease Inhibitor with In Vivo Antialphaviral Activity” (J Med Chem, 2025).
Activity calls are given as the source filed them. No cut-off for these calls is given here.

Columns and labels:
Format in all cases: functional, organism-based
[1] = test system: Chikungunya virus; test: Antiviral activity against CHIKV infected in male C57BL/6 mouse assessed as reduction in viral level in left foot at 100 mg/kg, administered three times a day and measured after 48 hrs
[2] = test system: Chikungunya virus; test: Antiviral activity against CHIKV infected in male C57BL/6 mouse assessed as reduction in viral level in left quad at 100 mg/kg, administered three times a day and measured after 48 hrs
[3] = test system: Chikungunya virus; test: Antiviral activity against CHIKV infected in male C57BL/6 mouse assessed as reduction in viral level in right quad at 100 mg/kg, administered three times a day and measured after 48 hrs
[4] = test system: Chikungunya virus; test: Antiviral activity against CHIKV infected in male C57BL/6 mouse assessed as reduction in viral level in spleen at 100 mg/kg, administered three times a day and measured after 48 hrs
[5] = test system: Chikungunya virus; test: Antiviral activity against CHIKV infected in male C57BL/6 mouse assessed as reduction in viral level in right foot at 100 mg/kg, administered three times a day and measured after 48 hrs
[6] = test system: Chikungunya virus; test: Antiviral activity against CHIKV infected in male C57BL/6 mouse assessed as reduction in viral level in serum at 100 mg/kg, administered three times a day and measured after 48 hrs

CCOc1ccccc1-c1cc(C(=O)NC/C=C/S(C)(=O)=O)n[nH]1
Activity [1]: inactive
Activity [2]: Active
Activity [3]: Active
Activity [4]: Active
Activity [5]: Active; Viral Level Reduced In 4 Out Of 5 Mouse
Activity [6]: Active; Reduction Of Small Level Of Virus Level Observed
